Results on five compounds are retold here after the NIST ThermoML archive (doi:10.1016/j.fluid.2016.06.028).

Each structure is given as a SMILES string. Numbers after ± are expanded uncertainties.

For the first series the following is noted: 323.15 K; 101.33 kPa; Liquid; Direct current cell with electrodes.
As for `CC[N+](C)(C)CCOC.O=S(=O)([N-]S(=O)(=O)C(F)(F)F)C(F)(F)F`, the electrical conductivity came out at 0.395 ± 0.04 S/m.
Take `COCC[N+]1(C)CCCC1.O=S(=O)([N-]S(=O)(=O)C(F)(F)F)C(F)(F)F`: the electrical conductivity worked out at 0.534 ± 0.04 S/m.
On the same count and under the same terms, as for `CCC[N+](C)(C)CC.O=S(=O)([N-]S(=O)(=O)C(F)(F)F)C(F)(F)F`, the figure is 0.358 ± 0.04 S/m; as for `COCC[N+]1(C)CCOCC1.O=S(=O)([N-]S(=O)(=O)C(F)(F)F)C(F)(F)F`, 0.136 ± 0.04 S/m; as for `COCC[N+]1(C)CCCCC1.O=S(=O)([N-]S(=O)(=O)C(F)(F)F)C(F)(F)F`, 0.325 ± 0.04 S/m.

Staying with this series, now noted: 323.15 K; 101.33 kPa; Liquid; Vibrating tube method.
Broadly, the mass density is the mass of a sample divided by its volume. Consider `CC[N+](C)(C)CCOC.O=S(=O)([N-]S(=O)(=O)C(F)(F)F)C(F)(F)F`, for which the mass density stood at 1401.5 ± 1.8 kg/m3.
In the case of `COCC[N+]1(C)CCCC1.O=S(=O)([N-]S(=O)(=O)C(F)(F)F)C(F)(F)F`, the mass density is given as 1429.9 ± 1.9 kg/m3.
As for `CCC[N+](C)(C)CC.O=S(=O)([N-]S(=O)(=O)C(F)(F)F)C(F)(F)F`, the mass density is recorded as 1381 ± 1.7 kg/m3.
As for `COCC[N+]1(C)CCOCC1.O=S(=O)([N-]S(=O)(=O)C(F)(F)F)C(F)(F)F`, the mass density amounted to 1477.2 ± 2 kg/m3.
Turning to `COCC[N+]1(C)CCCCC1.O=S(=O)([N-]S(=O)(=O)C(F)(F)F)C(F)(F)F`, the mass density came to 1410.7 ± 1.8 kg/m3.

Staying with this series, now noted: 333.15 K, Ring tensiometer.
A word on the surface tension liquid-gas: it is the force per length acting along the surface. Regarding `CC[N+](C)(C)CCOC.O=S(=O)([N-]S(=O)(=O)C(F)(F)F)C(F)(F)F`, the surface tension liquid-gas was 43.46 ± 0.8 mN/m.
Same read-out and setting: the figure for `COCC[N+]1(C)CCCC1.O=S(=O)([N-]S(=O)(=O)C(F)(F)F)C(F)(F)F` is 45 ± 0.81 mN/m.
Turning to `CCC[N+](C)(C)CC.O=S(=O)([N-]S(=O)(=O)C(F)(F)F)C(F)(F)F`, the surface tension liquid-gas is reported as 43.34 ± 0.79 mN/m.
Same read-out and setting: as for `COCC[N+]1(C)CCOCC1.O=S(=O)([N-]S(=O)(=O)C(F)(F)F)C(F)(F)F`, the figure is 46.3 ± 0.83 mN/m.
With `COCC[N+]1(C)CCCCC1.O=S(=O)([N-]S(=O)(=O)C(F)(F)F)C(F)(F)F`, the surface tension liquid-gas was 40.98 ± 0.76 mN/m.

Staying with this series, now noted: 333.15 K; 101.33 kPa; Liquid; Concentric cylinders viscometry.
A word on the viscosity: it is the resistance of a fluid to flow. Take `CC[N+](C)(C)CCOC.O=S(=O)([N-]S(=O)(=O)C(F)(F)F)C(F)(F)F`: the viscosity is on record as 18.3 ± 1.8 mPa·s.
`COCC[N+]1(C)CCCC1.O=S(=O)([N-]S(=O)(=O)C(F)(F)F)C(F)(F)F`: the viscosity turned out to be 20.1 ± 2 mPa·s.
`CCC[N+](C)(C)CC.O=S(=O)([N-]S(=O)(=O)C(F)(F)F)C(F)(F)F`: the viscosity came to 21.3 ± 2.1 mPa·s.
For `COCC[N+]1(C)CCOCC1.O=S(=O)([N-]S(=O)(=O)C(F)(F)F)C(F)(F)F`, the viscosity was determined as 51.89 ± 5.2 mPa·s.
On the same count and under the same terms, as for `COCC[N+]1(C)CCCCC1.O=S(=O)([N-]S(=O)(=O)C(F)(F)F)C(F)(F)F`, the figure is 19.8 ± 2 mPa·s.

Staying with this series, now noted: 333.15 K; 101.33 kPa; Liquid; Direct current cell with electrodes.
`CC[N+](C)(C)CCOC.O=S(=O)([N-]S(=O)(=O)C(F)(F)F)C(F)(F)F`: the electrical conductivity came out at 0.465 ± 0.04 S/m.
In the case of `COCC[N+]1(C)CCCC1.O=S(=O)([N-]S(=O)(=O)C(F)(F)F)C(F)(F)F`, the electrical conductivity was 0.59 ± 0.04 S/m.
On the same count and under the same terms, the figure for `CCC[N+](C)(C)CC.O=S(=O)([N-]S(=O)(=O)C(F)(F)F)C(F)(F)F` is 0.414 ± 0.04 S/m; for `COCC[N+]1(C)CCOCC1.O=S(=O)([N-]S(=O)(=O)C(F)(F)F)C(F)(F)F` it is 0.17 ± 0.04 S/m.
On to `COCC[N+]1(C)CCCCC1.O=S(=O)([N-]S(=O)(=O)C(F)(F)F)C(F)(F)F`, for which the electrical conductivity stood at 0.396 ± 0.04 S/m.

The series is the same for the next values; noted with them: 333.15 K; 101.33 kPa; Liquid; Vibrating tube method.
With `CC[N+](C)(C)CCOC.O=S(=O)([N-]S(=O)(=O)C(F)(F)F)C(F)(F)F`, the mass density stood at 1390.3 ± 1.8 kg/m3.
The same measure, in the same setting: as for `COCC[N+]1(C)CCCC1.O=S(=O)([N-]S(=O)(=O)C(F)(F)F)C(F)(F)F`, the figure is 1420.7 ± 1.8 kg/m3; as for `CCC[N+](C)(C)CC.O=S(=O)([N-]S(=O)(=O)C(F)(F)F)C(F)(F)F`, 1372.1 ± 1.7 kg/m3; as for `COCC[N+]1(C)CCOCC1.O=S(=O)([N-]S(=O)(=O)C(F)(F)F)C(F)(F)F`, 1468 ± 2 kg/m3.
With `COCC[N+]1(C)CCCCC1.O=S(=O)([N-]S(=O)(=O)C(F)(F)F)C(F)(F)F`, the mass density was 1401.7 ± 1.8 kg/m3.

The series is the same for the next values; noted with them: 343.15 K, Ring tensiometer.
In the case of `CC[N+](C)(C)CCOC.O=S(=O)([N-]S(=O)(=O)C(F)(F)F)C(F)(F)F`, the surface tension liquid-gas is 42.23 ± 0.78 mN/m.
Same read-out and setting: the figure for `COCC[N+]1(C)CCCC1.O=S(=O)([N-]S(=O)(=O)C(F)(F)F)C(F)(F)F` is 44.26 ± 0.81 mN/m.
As to `CCC[N+](C)(C)CC.O=S(=O)([N-]S(=O)(=O)C(F)(F)F)C(F)(F)F`, the surface tension liquid-gas is 42.03 ± 0.78 mN/m.
For `COCC[N+]1(C)CCOCC1.O=S(=O)([N-]S(=O)(=O)C(F)(F)F)C(F)(F)F`, the surface tension liquid-gas is reported as 45.36 ± 0.82 mN/m.
The same measure, in the same setting: the figure for `COCC[N+]1(C)CCCCC1.O=S(=O)([N-]S(=O)(=O)C(F)(F)F)C(F)(F)F` is 40.19 ± 0.75 mN/m.

Still in this series, the particulars now being: 343.15 K; 101.33 kPa; Liquid; Concentric cylinders viscometry.
In the case of `CC[N+](C)(C)CCOC.O=S(=O)([N-]S(=O)(=O)C(F)(F)F)C(F)(F)F`, the viscosity turned out to be 15 ± 1.5 mPa·s.
On the same count and under the same terms, the figure for `COCC[N+]1(C)CCCC1.O=S(=O)([N-]S(=O)(=O)C(F)(F)F)C(F)(F)F` is 16.8 ± 1.7 mPa·s; for `CCC[N+](C)(C)CC.O=S(=O)([N-]S(=O)(=O)C(F)(F)F)C(F)(F)F` it is 17.1 ± 1.7 mPa·s.
Take `COCC[N+]1(C)CCOCC1.O=S(=O)([N-]S(=O)(=O)C(F)(F)F)C(F)(F)F`: the viscosity is reported as 37.49 ± 3.8 mPa·s.
With `COCC[N+]1(C)CCCCC1.O=S(=O)([N-]S(=O)(=O)C(F)(F)F)C(F)(F)F`, the viscosity was 15.6 ± 1.6 mPa·s.

The series is the same for the next values; noted with them: 343.15 K; 101.33 kPa; Liquid; Direct current cell with electrodes.
As to `CC[N+](C)(C)CCOC.O=S(=O)([N-]S(=O)(=O)C(F)(F)F)C(F)(F)F`, the electrical conductivity turned out to be 0.551 ± 0.04 S/m.
`COCC[N+]1(C)CCCC1.O=S(=O)([N-]S(=O)(=O)C(F)(F)F)C(F)(F)F`: the electrical conductivity is 0.648 ± 0.04 S/m.
Take `CCC[N+](C)(C)CC.O=S(=O)([N-]S(=O)(=O)C(F)(F)F)C(F)(F)F`: the electrical conductivity came to 0.519 ± 0.04 S/m.
Regarding `COCC[N+]1(C)CCOCC1.O=S(=O)([N-]S(=O)(=O)C(F)(F)F)C(F)(F)F`, the electrical conductivity was 0.257 ± 0.04 S/m.
As for `COCC[N+]1(C)CCCCC1.O=S(=O)([N-]S(=O)(=O)C(F)(F)F)C(F)(F)F`, the electrical conductivity was found to be 0.489 ± 0.04 S/m.

Staying with this series, now noted: 343.15 K; 101.33 kPa; Liquid; Vibrating tube method.
As for `CC[N+](C)(C)CCOC.O=S(=O)([N-]S(=O)(=O)C(F)(F)F)C(F)(F)F`, the mass density was 1379.2 ± 1.7 kg/m3.
`COCC[N+]1(C)CCCC1.O=S(=O)([N-]S(=O)(=O)C(F)(F)F)C(F)(F)F`: the mass density was determined as 1411.2 ± 1.8 kg/m3.
On the same count and under the same terms, the figure for `CCC[N+](C)(C)CC.O=S(=O)([N-]S(=O)(=O)C(F)(F)F)C(F)(F)F` is 1362.4 ± 1.7 kg/m3; for `COCC[N+]1(C)CCOCC1.O=S(=O)([N-]S(=O)(=O)C(F)(F)F)C(F)(F)F` it is 1458.9 ± 1.9 kg/m3; for `COCC[N+]1(C)CCCCC1.O=S(=O)([N-]S(=O)(=O)C(F)(F)F)C(F)(F)F` it is 1392.5 ± 1.8 kg/m3.

Staying with this series, now noted: 353.15 K, Ring tensiometer.
Turning to `CC[N+](C)(C)CCOC.O=S(=O)([N-]S(=O)(=O)C(F)(F)F)C(F)(F)F`, the surface tension liquid-gas is listed as 40.44 ± 0.76 mN/m.
In the case of `COCC[N+]1(C)CCCC1.O=S(=O)([N-]S(=O)(=O)C(F)(F)F)C(F)(F)F`, the surface tension liquid-gas is 42.28 ± 0.78 mN/m.
On the same count and under the same terms, the figure for `CCC[N+](C)(C)CC.O=S(=O)([N-]S(=O)(=O)C(F)(F)F)C(F)(F)F` is 40.89 ± 0.76 mN/m; for `COCC[N+]1(C)CCOCC1.O=S(=O)([N-]S(=O)(=O)C(F)(F)F)C(F)(F)F` it is 44.74 ± 0.81 mN/m; for `COCC[N+]1(C)CCCCC1.O=S(=O)([N-]S(=O)(=O)C(F)(F)F)C(F)(F)F` it is 38.83 ± 0.74 mN/m.

Staying with this series, now noted: 353.15 K; 101.33 kPa; Liquid; Concentric cylinders viscometry.
As for `CC[N+](C)(C)CCOC.O=S(=O)([N-]S(=O)(=O)C(F)(F)F)C(F)(F)F`, the viscosity is given as 13.2 ± 1.3 mPa·s.
Same read-out and setting: as for `COCC[N+]1(C)CCCC1.O=S(=O)([N-]S(=O)(=O)C(F)(F)F)C(F)(F)F`, the figure is 13.5 ± 1.4 mPa·s; as for `CCC[N+](C)(C)CC.O=S(=O)([N-]S(=O)(=O)C(F)(F)F)C(F)(F)F`, 14.1 ± 1.4 mPa·s; as for `COCC[N+]1(C)CCOCC1.O=S(=O)([N-]S(=O)(=O)C(F)(F)F)C(F)(F)F`, 27.59 ± 2.8 mPa·s.
As for `COCC[N+]1(C)CCCCC1.O=S(=O)([N-]S(=O)(=O)C(F)(F)F)C(F)(F)F`, the viscosity came out at 13.8 ± 1.4 mPa·s.

The same series, now with this note: 353.15 K; 101.33 kPa; Liquid; Direct current cell with electrodes.
For `CC[N+](C)(C)CCOC.O=S(=O)([N-]S(=O)(=O)C(F)(F)F)C(F)(F)F`, the electrical conductivity was 0.633 ± 0.04 S/m.
`COCC[N+]1(C)CCCC1.O=S(=O)([N-]S(=O)(=O)C(F)(F)F)C(F)(F)F`: the electrical conductivity was determined as 0.699 ± 0.04 S/m.
`CCC[N+](C)(C)CC.O=S(=O)([N-]S(=O)(=O)C(F)(F)F)C(F)(F)F`: the electrical conductivity was found to be 0.634 ± 0.04 S/m.
`COCC[N+]1(C)CCOCC1.O=S(=O)([N-]S(=O)(=O)C(F)(F)F)C(F)(F)F`: the electrical conductivity is 0.334 ± 0.04 S/m.
With `COCC[N+]1(C)CCCCC1.O=S(=O)([N-]S(=O)(=O)C(F)(F)F)C(F)(F)F`, the electrical conductivity came out at 0.599 ± 0.04 S/m.

Still in this series, the particulars now being: 353.15 K; 101.33 kPa; Liquid; Vibrating tube method.
`CC[N+](C)(C)CCOC.O=S(=O)([N-]S(=O)(=O)C(F)(F)F)C(F)(F)F`: the mass density stood at 1368.9 ± 1.7 kg/m3.
The same measure, in the same setting: as for `COCC[N+]1(C)CCCC1.O=S(=O)([N-]S(=O)(=O)C(F)(F)F)C(F)(F)F`, the figure is 1401.9 ± 1.8 kg/m3; as for `CCC[N+](C)(C)CC.O=S(=O)([N-]S(=O)(=O)C(F)(F)F)C(F)(F)F`, 1352.7 ± 1.7 kg/m3.
For `COCC[N+]1(C)CCOCC1.O=S(=O)([N-]S(=O)(=O)C(F)(F)F)C(F)(F)F`, the mass density is listed as 1449.8 ± 1.9 kg/m3.
Turning to `COCC[N+]1(C)CCCCC1.O=S(=O)([N-]S(=O)(=O)C(F)(F)F)C(F)(F)F`, the mass density is given as 1383.3 ± 1.7 kg/m3.
